# In patent publication US20060147932A1, “Methods of screening for modulators of nerve growth factor” (priority 2003, published 2006):
# Test system: Adult rat DRG neurons
# Assay: Measurement of gene expression in adult DRG neurons by real-time PCR
# Assay type: cell-based
# Experimental: Dorsal root ganglia were dissected from adult (3-6 months old) Sprague-Dawley rats, and dissociated and cultured by standard techniques (Lindsay, 1988). Briefly, ganglia were stripped of their sheaths, and incubated in 0.125% collagenase type IV (Worthington) in Ham's F12 with 10% HIHS for two 90 minute periods at 37° C. They were then washed extensively and incubated in 0.25% trypsin (Worthington) in HBSS at 37 degrees for 30 minutes. After inactivation of trypsin with 10% heat inactivated horse serum and further washing, the ganglia were dissociated by gentle trituration through a flame polished Pasteur pipet.
# Neurons were plated on polyornithine and laminin coated 96-well plates in defined serum free medium consisting of Hams F-14 nutrient mixture with plus 2 mM glutamine, 0.35% bovine serum albumin (Albumax II, Gibco-BRL or Pathocyte-5, ICN), 60 ng/ml progesterone, 16 ug/ml putrescine, 400 ng/ml L-thyroxine, 38 ng/ml sodium selenite, 340 ng/ml tri-iodo-thyronine, 60 ug/ml penicillin and 100 ug/ml streptomycin (Sigma) (Davies et al., 1993). NGF (10 ng/ml) and test compounds were added to the wells shortly before or after plating as described below.
# Adult rat DRG neurons were plated in 96 well plates, exposed to different concentrations of NGF for 120 hours and specific mRNA expression was analysed using the Stratagene Mx4000 real time PCR instrument. These conditions allow detection of greater than 15-fold increase in substance P mRNA content relative to GAPDH mRNA at the highest concentration of NGF used (FIG. 1). In addition, it was shown that a greater than 3-fold reduction in galanin mRNA level relative to GAPDH mRNA at the highest concentration of NGF can be measured (FIG. 1).
# After culture as described above for 5 days RNA was extracted and the ratio of substance P mRNA expression determined relative to GAPDH mRNA for RNA from each of the culture wells by RT-PCR. RT-PCR was also performed to determine the ratio of galanin to GAPDH mRNA for each RNA sample. […]
substance,measurement,setting,value
"NGF: nerve growth factor, the first neurotrophin identified; acts through TrkA and p75 receptors",reduction in galanin mRNA level relative to GAPDH mRNA,"highest concentration of NGF (range up to 50 ng/ml), 120 hours exposure, relative to cultures with no added NGF (FIG. 1)",greater than 3 fold
same,increase in substance P mRNA content relative to GAPDH mRNA,"highest concentration of NGF used (range up to 50 ng/ml), 120 hours exposure, 96 well plates, relative to cultures with no added NGF (FIG. 1)",greater than 15 fold
same,combined difference in gene expression (substance P and galanin combined in a single assay) in the absence or presence of NGF,"substance P mRNA relative to galanin mRNA, 120 hours exposure (FIG. 1)",approximately 50 fold
